# Experimental data reported in patent EP0010667A1, “Cepham compounds, pharmaceutical compositions containing them and processes for the preparation thereof and of known cephem compounds” (FUJISAWA PHARMACEUTICAL CO., LTD., priority 1978, dated 1980).
# Columns and labels:
# Klebsiella pneumoniae 20 = assay: In vitro antibacterial activity, two-fold agar-plate dilution method; assay type: cell-based; settings: heart infusion agar (HI-agar), incubated at 37°C for 20 hours
# Procedure: (§1) In vitro antibacterial activity was determined by the two-fold agar-plate dilution'method as described below. One loopful of an overnight culture of each test strain in Trypticase soy broth was streaked on heart infusion agar (HI-agar) containing graded concentration of the test compound and incubated at 37°C for 20 hours. The minimal inhibitory concentration (MIC) was expressed in µg/m1.
# Proteus mirabilis 18 = assay: as above; assay type: cell-based; settings: heart infusion agar (HI-agar), incubated at 37°C for 20 hours
# Procedure: as §1
compound,measurement,setting,value
"CO/N=C(\C(=O)NC1C(=O)N2C(C(=O)O)C(=COC(C)=O)CSC12)c1csc(N)n1 (stereo not drawn) [Test compound, 7-[2-(2-Aminothiazol-4-yl)-2-methoxyimino-acetamido]-3-acetoxymethylenecepham-4-carboxylic acid (syn isomer)]",MIC,Klebsiella pneumoniae 20,6.25 µg/mL
same,MIC,Proteus mirabilis 18,6.25 µg/mL
